Source: paper PMC10882719 (Frontiers in Neuroscience, 2024)
Like-named read-outs stand apart in the source and are kept apart here.

Experiments:
Assay type in all cases: cell-based
168 GPCRs [1] = biological target: T1, 168 GPCRs (Homo sapiens, UniProt O95838); conditions: GLP2R
T1 construct: host or cells: PathHunter cell lines
T1 sequence (O95838 1-553): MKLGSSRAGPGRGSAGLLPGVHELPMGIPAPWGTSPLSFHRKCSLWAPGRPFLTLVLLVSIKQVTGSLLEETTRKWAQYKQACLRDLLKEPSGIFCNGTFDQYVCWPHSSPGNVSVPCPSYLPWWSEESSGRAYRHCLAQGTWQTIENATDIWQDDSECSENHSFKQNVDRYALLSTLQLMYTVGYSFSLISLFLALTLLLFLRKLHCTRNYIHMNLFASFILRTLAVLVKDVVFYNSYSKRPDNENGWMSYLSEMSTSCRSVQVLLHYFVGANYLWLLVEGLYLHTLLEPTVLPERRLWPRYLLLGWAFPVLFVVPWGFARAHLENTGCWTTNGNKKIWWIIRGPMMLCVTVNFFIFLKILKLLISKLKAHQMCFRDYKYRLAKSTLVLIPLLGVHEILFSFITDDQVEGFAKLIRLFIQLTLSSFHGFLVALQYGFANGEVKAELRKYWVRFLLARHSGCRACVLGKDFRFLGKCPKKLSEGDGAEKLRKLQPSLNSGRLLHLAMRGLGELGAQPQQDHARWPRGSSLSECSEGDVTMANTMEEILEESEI

168 GPCRs [2] = biological target: T2, 168 GPCRs (Homo sapiens, UniProt P25090)
T2 construct: host or cells: PathHunter cell lines
T2 sequence (P25090 1-351): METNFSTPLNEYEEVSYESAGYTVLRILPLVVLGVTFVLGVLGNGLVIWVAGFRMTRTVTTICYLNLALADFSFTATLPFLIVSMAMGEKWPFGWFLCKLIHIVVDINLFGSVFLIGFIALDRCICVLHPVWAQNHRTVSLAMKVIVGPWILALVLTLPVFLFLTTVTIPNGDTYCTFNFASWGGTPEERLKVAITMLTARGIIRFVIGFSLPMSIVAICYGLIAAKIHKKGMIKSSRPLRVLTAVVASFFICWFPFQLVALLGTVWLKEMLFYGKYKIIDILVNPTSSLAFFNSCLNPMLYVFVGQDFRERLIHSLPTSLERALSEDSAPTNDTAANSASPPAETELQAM

168 GPCRs [3] = biological target: T3, 168 GPCRs (Homo sapiens, UniProt P32241); conditions: VIPR1
T3 construct: host or cells: PathHunter cell lines
T3 sequence (P32241 31-457): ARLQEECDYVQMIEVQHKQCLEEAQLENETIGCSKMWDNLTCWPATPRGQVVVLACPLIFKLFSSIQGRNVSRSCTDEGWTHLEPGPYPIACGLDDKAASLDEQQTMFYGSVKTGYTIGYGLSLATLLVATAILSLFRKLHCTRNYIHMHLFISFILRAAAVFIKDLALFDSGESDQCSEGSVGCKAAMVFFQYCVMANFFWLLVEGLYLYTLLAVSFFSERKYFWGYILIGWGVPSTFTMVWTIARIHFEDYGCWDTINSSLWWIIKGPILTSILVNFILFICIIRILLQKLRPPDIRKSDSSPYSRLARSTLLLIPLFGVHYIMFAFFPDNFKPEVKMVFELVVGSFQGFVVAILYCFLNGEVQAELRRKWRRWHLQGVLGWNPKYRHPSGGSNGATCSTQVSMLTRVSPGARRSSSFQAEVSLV

168 GPCRs [4] = biological target: T4, 168 GPCRs (Homo sapiens, UniProt P55085)
T4 construct: host or cells: PathHunter cell lines
T4 sequence (P55085 26-397): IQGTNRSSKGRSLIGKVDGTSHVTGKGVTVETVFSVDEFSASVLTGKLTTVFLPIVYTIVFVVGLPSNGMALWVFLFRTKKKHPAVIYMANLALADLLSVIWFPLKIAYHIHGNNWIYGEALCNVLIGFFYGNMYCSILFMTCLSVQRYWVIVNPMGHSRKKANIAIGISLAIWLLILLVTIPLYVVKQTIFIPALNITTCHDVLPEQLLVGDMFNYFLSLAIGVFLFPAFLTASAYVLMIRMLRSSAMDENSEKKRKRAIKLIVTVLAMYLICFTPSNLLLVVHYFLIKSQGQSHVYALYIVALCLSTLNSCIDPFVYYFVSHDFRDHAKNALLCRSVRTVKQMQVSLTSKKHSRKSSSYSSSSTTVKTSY

168 GPCRs [5] = biological target: T5, 168 GPCRs (Homo sapiens, UniProt Q5NUL3)
T5 construct: host or cells: PathHunter cell lines
T5 sequence (Q5NUL3 1-361): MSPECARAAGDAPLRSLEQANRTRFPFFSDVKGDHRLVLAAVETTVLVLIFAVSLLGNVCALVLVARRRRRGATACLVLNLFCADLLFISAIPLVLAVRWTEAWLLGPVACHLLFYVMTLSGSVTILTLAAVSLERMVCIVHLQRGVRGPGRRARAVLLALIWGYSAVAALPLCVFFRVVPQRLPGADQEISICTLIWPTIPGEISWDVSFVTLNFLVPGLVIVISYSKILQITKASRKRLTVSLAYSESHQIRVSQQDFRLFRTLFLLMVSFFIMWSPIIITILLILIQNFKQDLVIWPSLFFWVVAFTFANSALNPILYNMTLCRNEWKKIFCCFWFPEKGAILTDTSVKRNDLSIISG

| Structure (SMILES) | % Agonist Activity (168 GPCRs [1]; 1 uM) | % Antagonist Activity (168 GPCRs [1]; 1 uM) | % Agonist Activity (168 GPCRs [1]; 10 uM) | % Antagonist Activity (168 GPCRs [1]; 10 uM) | % Agonist Activity (168 GPCRs [2]; FPRL1, 1 uM) | % Antagonist Activity (168 GPCRs [2]; FPRL1, 1 uM) | % Agonist Activity (168 GPCRs [2]; FPRL1, 10 uM) | % Antagonist Activity (168 GPCRs [2]; FPRL1, 10 uM) | % Agonist Activity (168 GPCRs [3]; Conc 1 uM) | % Antagonist Activity (168 GPCRs [3]; Conc 1 uM) | % Agonist Activity (168 GPCRs [3]; Conc 10 uM) | % Antagonist Activity (168 GPCRs [3]; Conc 10 uM) | % Agonist Activity (168 GPCRs [4]; F2RL1, 1 uM) | % Antagonist Activity (168 GPCRs [4]; F2RL1, 1 uM) | % Agonist Activity (168 GPCRs [4]; F2RL1, 10 uM) | % Antagonist Activity (168 GPCRs [4]; F2RL1, 10 uM) | % Agonist Activity (168 GPCRs [5]; GPR120, 1 uM) | % Antagonist Activity (168 GPCRs [5]; GPR120, 1 uM) | % Agonist Activity (168 GPCRs [5]; GPR120, 10 uM) | % Antagonist Activity (168 GPCRs [5]; GPR120, 10 uM) |
| --- | --- | --- | --- | --- | --- | --- | --- | --- | --- | --- | --- | --- | --- | --- | --- | --- | --- | --- | --- | --- |
| CNC(C)C(=O)c1ccc2c(c1)OCO2 (stereo not shown) [methylone] | -1.5% | 5.4% | -1% | 5.4% | -0.5% | 12.3% | 0.1% | 3.9% | 0.3% | -0.7% | 0.6% | 5.3% | -0.6% | -26.8% | 3.8% | -16.2% | -5.1% | 46.5% | -5.8% | 40.3% |
| CNC(C)Cc1ccc2c(c1)OCO2 (stereo not shown) [MDMA, 3,4-Methylenedioxy methamphetamine, reference compound] | 0% | 3.4% | -5% | 1.1% | -0.1% | 14.8% | -0.1% | 16.7% | -0.8% | 5.7% | -0.6% | 5.1% | 16.4% | 9.6% | 1.8% | 10.9% | -3.7% | 11.3% | -4.4% | 8.8% |
